Results: patent US20080261821A1, “Mechanism-Based Crosslinkers” (THE REGENTS OF TE UNIVERSITY OF CALIFORNIA, priority 2004, published 2008)
The star is where a group is joined. Biotin = O=C1N[C@H]2[C@H](CS[C@H]2CCCCC(=O)*)N1; Ahx = NCCCCCC(=O)O

Legend:
[1] = biological target: T1, His 6-tagged human Akt1 (Homo sapiens, UniProt P31749); assay: Crosslinking reactions with AKT1 (SDS-PAGE, streptavidin-HRP blot); type: biochemical; conditions: for crosslinking of peptide to AKT1 (formation of the peptide-AKT1 complex): peptide incubated with AKT1 in the presence of dialdehyde crosslinker 2, FIG. 2A
T1 construct: purchased Calbiochem
Protocol: His 6-tagged human Akt1 (10 ng), 1 μM peptide 3 or 4, and 20 µM crosslinker 2 were incubated in 30 μL of 25 mM HEPES (pH=7.5), 150 mM NaCl, 2 mM MgCl2, 20 μM BME for 20 min at rt. After 20 min, 6 μL of 6× loading buffer was added to quench the reactions. The sample mixtures (10 μL) were resolved by 8-16% SDS-PAGE, transferred to nitrocellulose, and the membrane was probed with streptavidin-HRP.
To evaluate dialdehyde 2 as a mechanism-based crosslinker, a set of peptide substrate derivatives with and without an engineered cysteine (biotin-ZRPRTSSF-OH 3, fluorescein-ZZRPRTSSF-OH 4, biotin-ZRPRTSCF-OH 5 and fluorescein-ZZRPRTSCF—OH 6) were incubated with the kinase, AKT1 (Alessi et al., FEBS Lett. 399: 333-338 (1996)). […] As expected, the peptide-AKT1 covalent complex runs at a slightly higher molecular weight than unmodified AKT1 on SDS-PAGE.

[2] = biological target: T2, AKT kinase (Homo sapiens, UniProt P31749); assay: Kinase cell lysate crosslinking (avidin-agarose pull-down, anti-AKT blot); type: biochemical; conditions: 100 ng AKT kinase, 2 μg HeLa cell lysate; for anti-AKT signal after avidin-agarose pull-down of the biotinylated substrate: 1 μM substrate, 100 μM crosslinker 2, 90 minutes
T2 construct: host or cells: added to HeLa cell lysate
Protocol: Kinase cell lysate crosslinking details: 1 μM of Akt substrate (Biotin-PEG-RPRTSCF-OH) and 100 ng of AKT kinase was added to 2 μg of HeLa cell lysate. 100 μM of the crosslinker 2 was added to cell lysate and the reaction was allowed to proceed for 90 minutes. The lysate were poured over avidin-agarose beads and the beads were washed with wash buffer. The bound protein was eluted from the agarose beads with loading buffer and then subjected to SDS-PAGE. The gel was transferred to nitrocellulose and probed with anti-AKT. […] As a control, the non-cysteine containing AKT substrate (Biotin-PEG-RPRTSSF-OH) was used in the crosslinking reaction described above. No signal was observed.

T1 sequence (P31749 whole entry): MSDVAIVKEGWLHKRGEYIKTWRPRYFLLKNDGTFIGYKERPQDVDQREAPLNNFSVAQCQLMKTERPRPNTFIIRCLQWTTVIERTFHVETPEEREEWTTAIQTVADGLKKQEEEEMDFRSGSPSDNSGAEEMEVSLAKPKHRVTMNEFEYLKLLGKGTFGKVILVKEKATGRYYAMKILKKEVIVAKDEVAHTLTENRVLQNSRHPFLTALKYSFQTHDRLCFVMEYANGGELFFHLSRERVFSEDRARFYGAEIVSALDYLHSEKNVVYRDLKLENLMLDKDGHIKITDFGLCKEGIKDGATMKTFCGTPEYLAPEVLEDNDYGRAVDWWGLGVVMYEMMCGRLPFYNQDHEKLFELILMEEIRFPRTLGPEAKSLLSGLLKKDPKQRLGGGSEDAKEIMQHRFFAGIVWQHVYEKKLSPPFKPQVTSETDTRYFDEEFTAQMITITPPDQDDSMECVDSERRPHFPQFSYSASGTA
T2 sequence (P31749 whole entry): as above

Molecule | anti-AKT signal after avidin-agarose pull-down of the biotinylated substrate [2] | crosslinking of peptide to AKT1 (formation of the peptide-AKT1 complex) [1] | further results
Nc1ncnc2c1ncn2C1OC(COC(=O)c2ccc(C=O)c(C=O)c2)C(O)C1O (stereo not shown) [dialdehyde 2] |  |  | crosslinking of AKT1 and peptide by the crosslinker (formation of the peptide-AKT1 complex) ([1]; dialdehyde 2 incubated with cysteine-containing peptide 5 and AKT1, FIG. 2A lane 2): rapid formation of the peptide-AKT1 complex was observed; anti-AKT signal after crosslinking in cell lysate by the crosslinker ([2]; 100 μM crosslinker 2 with 1 μM Biotin-PEG-RPRTSCF-OH, 90 minutes): positive signal
Biotin-PEG-RPRTSCF-OH | positive signal |  | 
Biotin-PEG-RPRTSSF-OH [reference compound] | No signal |  | 
Fluorescein-Ahx-Ahx-Arg-Pro-Arg-Thr-Ser-Cys-Phe-OH ({fluorescein-Ahx-Ahx}-RPRTSCF-OH) [peptide 6] |  | identical results | 
{Biotin-Ahx}-RPRTSCF-OH [peptide 5] |  | rapid formation of the peptide-AKT1 complex was observed | 
{Biotin-Ahx}-RPRTSSF-OH [peptide 3, reference compound] |  | no detectable crosslinking | 
